Patent US5037830A, “Novel thiouracyl derivatives, pharmaceutical compositions containing them and process for preparing same” (Richter Gedeon Vegyeszeti Gyar RT, priority 1989, dated 1991)
Read-outs that look alike come from different tables or passages of the source.

Experiments:
[1] = tested on: reserpine-induced gastric ulcer; assay: Inhibition of the reserpine-induced gastric ulcer; assay type: in vivo, female OFA rats; conditions: for ED50: Rattus norvegicus, po, 18 h, p.o., reserpine 5 mg/kg s.c.
Description: After being starved for 24 hours, female OFA rats were orally treated with the compounds to be tested and then subcutaneously (s.c.) with 5 mg/kg of reserpine after 1 hour. After 18 hours the animals were killed and their stomach were examined under microscope. The evaluation was performed as described under the preceding paragraph 1.

Acute toxicity, rat = conditions: in vivo
Description: These investigations were carried out in OFI mice and OFA rats after starving for 24 hours. Ten animals were used for each dose. The number of doses was 3 or 4.

[2] = tested on: acetic acid-induced chronic ulcer; assay: Recovery-influencing effect on the acetic acid-induced chronic ulcer; assay type: in vivo, female RG-Wistar rats
Description: After anaesthesia by ether and laparotomy, 50 μl of 20% acetic acid were injected into the stomach wall of female RG-Wistar rats. After 5 days the animals were orally treated with the compounds to be tested daily twice for 15 days. On the 16th day the animals were killed by ether and the size of the ulcers appearing on the stomach was measured. The grade of recovery was defined in relation to the control group.

[3] = tested on: indomethacin-induced gastric ulcer; assay: Inhibition of the indomethacin-induced gastric ulcer; assay type: in vivo, female RG-Wistar rats
Description: After being starved for 24 hours, female RG-Wistar rats were orally treated with the compounds to be tested and then orally with 20 mg/kg of indomethacin after 30 minutes. The evaluation was carried out in relation to the control group and the ED50 values were determined.

[4] = tested on: carbachol-induced gastric acid secretion; assay: Inhibition of the carbachol-induced gastric acid secretion in rats; assay type: in vivo, male OFA rats; conditions: for Gastric acid, change / Gastric juice, change: vs control; for Gastric juice, treated: carbachol 0.01 mg/kg/hour;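 for Gastric acid, treated: dosed 30 min before a 5 hour experiment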
Description: (§1) After being starved for 24 hours, male OFA rats weighing 250 to 320 g were anaestethized by 40% urethane (0.5 ml/100 g), then the trachea and jugular vein were cannulated (10 animals were used for each dose). A glass cannula was inserted to the stomach from the direction of the pylorus. The stomach was washed with lukewarm water and then purified by air blown through. The gastric acid secretion was induced by an infusion of histamine (5 mg/kg/hour), or pentagastrin (0.05 mg/kg/hour) or carbachol (0.01 mg/kg/hour), respectively. […]

[5] = tested on: necrosis induced by ethanol containing hydrochloric acid; assay: Cytoprotective effect (modified Robert's test); assay type: in vivo; conditions: for Bleedings, change: vs control
Description: The modified Robert's test [Gastroenterology 17, 761 (1979)] was used. The necrotizing agent (100 ml of abs. ethanol containing 2 ml of concentrated hydrochloric acid) was orally administered in a volume of 0.5 ml/100 g by 30 minutes after giving the compound to be tested. (12 animals were used for each dose.) After 1 hour the animals were killed by ether and the bleedings on the glandular part of their stomach were evaluated.

[6] = tested on: spontaneous gastric acid secretion; assay: Gastric acid secretion-inhibiting effect according to Shay's method; assay type: in vivo, female OFA rats; conditions: for Gastric acid, change / Gastric juice, change: vs control; for Gastric acid, treated: titration with 0.1N NaOH
Description: After being starved for 24 hours, female OFA rats weighing 130 to 160 g were orally treated with the compounds to be tested. (15 animals were used for each dose.) One hour later laparotomy and pylorus ligature were carried out under ether anaesthesia according to Shay [Gastroenterology 5, 43 (1945)]. After 5 hours the animals were killed by an overdose of ether, their stomaches were excised and the volume and acid content of the gastric juice were determined. The acid was measured by titration with 0.1N NaOH, by using Topfer's indicator.

[7] = tested on: gastric ulcer induced by Aspirin plus stress; assay: Inhibition of the gastric ulcer induced by Aspirin plus stress; assay type: in vivo, female RG-Wistar rats
Description: After being starved for 24 hours, female RG-Wistar rats weighing 120 to 150 g were orally treated with the compound to be tested and then orally with Aspirin. The animals were sensitized by the aspirin pretreatment and a strong ulceration was induced in the glandular part of stomach of the animals by a subsequent stress (fastening, ducking in water of 22° C. temperature). The ulceration was evaluated as score values from 0 to 2.

[8] = tested on: gastric ulcer after pylorus ligature; assay: Gastric ulcer-inhibiting effect in rats operated according to Shay's method; assay type: in vivo, female OFA rats; conditions: for ED50: Rattus norvegicus, po, 18 h, p.o.
Description: Female OFA rats starved for 24 hours weighing 150 to 160 g were used. (The animals were allowed to drink water ad libitum). The animals were orally treated with the substance to be tested and after 1 hour laparotomy and pylorus ligature according to Shay [Gastroenterology 5, 43 (1945)] were performed under ether anaesthesia. After 18 hours the number and size of ulcers formed on the membranaceous part of the stomach were examined under microscope. The evaluation was made in relation to the control group and the ED50 values were determined. The sizes of the ulcers were expressed as score values from 0.5 to 32.

[9] = tested on: histamine-induced gastric acid secretion; assay: Inhibition of the histamine-induced gastric acid secretion in rats; assay type: in vivo, male OFA rats; conditions: for Gastric acid, change / Gastric juice, change: vs control; for Gastric juice, treated: histamine 5 mg/kg/hour;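 for Gastric acid, treated: dosed 30 min before a 5 hour experiment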
Description: as §1

[10] = read-out: ED50 related to the number of ulcers
[11] = read-out: ED50 related to the occurrance of ulcers
[12] = read-out: ED50 related to the severity of ulcers

## Cc1cc(=O)[nH]c(SCc2ccccc2N(C)C)n1 [Example 1, 2-(2-dimethylaminobenzyl)thio-6-methyl-4(3H)-pyrimidinone]
[1]; [10]
  ED50: 16 mg/kg
[1]; [11]
  ED50: 18 mg/kg
[1]; [12]
  ED50: 15 mg/kg
[1]; compared with reference drugs
  ulcer inhibition, in words: significantly stronger inhibited
Acute toxicity, rat; ip, female rat
  LD50: 430 mg/kg
Acute toxicity, rat; ip, male rat
  LD50: 450 mg/kg
Acute toxicity, rat; po, female rat, precision restricted by solubility
  LD50: 2400 mg/kg
Acute toxicity, rat; po, male rat, precision restricted by solubility
  LD50: > 3000 mg/kg
[2]; 15 mg/kg oral dose, daily twice for 15 days
  increase in the recovery: 45%
[2]; compared with reference drug
  recovery from developed gastric ulcers, in words: better results were achieved in the recovery from developed gastric ulcers
[3]; Rattus norvegicus, po, indomethacin 20 mg/kg orally
  ED50: 8.2 mg/kg
[3]; compared with reference drugs
  ulcer inhibition, in words: significantly stronger inhibited
[4]; 12.5 mg/kg i.p.
  Gastric acid, treated: 2.14 mL
  Gastric acid, change: -22%
  Gastric juice, change: -20%
  Gastric juice, treated: 1.65 mL
[4]; 20 mg/kg i.p.
  Gastric acid, treated: 0.90 mL
  Gastric acid, change: -67%
  Gastric juice, change: -66%
  Gastric juice, treated: 0.71 mL
[4]; 25 mg/kg i.p.
  Gastric acid, treated: 0.37 mL
  Gastric acid, change: -87%
  Gastric juice, change: -83%
  Gastric juice, treated: 0.34 mL
[4]; Rattus norvegicus, ip, carbachol-induced, dose column i.p.
  ED50: 16.5 mg/kg
[5]; 10 mg/kg p.o.
  Bleedings, treated: 62.0 mm
  Bleedings, change: -38.7%
[5]; 20 mg/kg p.o.
  Bleedings, treated: 42.1 mm
  Bleedings, change: -56.9%
[5]; 40 mg/kg p.o.
  Bleedings, treated: 10.9 mm
  Bleedings, change: -89.6%
[5]; po, cytoprotection
  ED50: 14.5 mg/kg
[6]; 10 mg/kg p.o.
  Gastric juice, treated: 6.76 mL
  Gastric acid, change: -28.2%
  Gastric juice, change: -10.6%
  Gastric acid, treated: 2.45 mL
[6]; 20 mg/kg p.o.
  Gastric juice, treated: 6.15 mL
  Gastric acid, change: -65.1%
  Gastric juice, change: -12.9%
  Gastric acid, treated: 1.17 mL
[6]; 40 mg/kg p.o.
  Gastric juice, treated: 4.51 mL
  Gastric acid, change: -92.4%
  Gastric juice, change: -34.4%
  Gastric acid, treated: 0.22 mL
[6]; compared with reference drugs
  inhibitor effect on gastric acid secretion, in words: equiactive to the NC-1300 reference drug
[6]; po, gastric acid, Shay rat
  ED50: 15 mg/kg
[7]; Rattus norvegicus, po, Aspirin plus stress
  ED50: 7.3 mg/kg
[7]; compared with reference drugs
  ulcer inhibition, in words: significantly stronger inhibited
[8]; [10]
  ED50: 3.3 mg/kg
[8]; [11]
  ED50: 9 mg/kg
[8]; [12]
  ED50: 3.7 mg/kg
[8]; compared with reference drugs
  ulcer inhibition, in words: significantly stronger inhibited
[9]; 6.25 mg/kg i.p.
  Gastric acid, treated: 3.41 mL
  Gastric acid, change: -42%
  Gastric juice, change: -44%
  Gastric juice, treated: 2.14 mL
[9]; 12.5 mg/kg i.p.
  Gastric acid, treated: 1.90 mL
  Gastric acid, change: -68%
  Gastric juice, change: -64%
  Gastric juice, treated: 1.38 mL
[9]; 25 mg/kg i.p.
  Gastric acid, treated: 0.66 mL
  Gastric acid, change: -89%
  Gastric juice, change: -87%
  Gastric juice, treated: 0.49 mL
[9]; Rattus norvegicus, ip, histamine-induced, dose column i.p.
  ED50: 6.8 mg/kg
